Here are results for one compound from patent US20150366788A1, “[…] EXTRACTS AND METHODS OF USE” (AVON PRODUCTS, INC, priority 2013, published 2015).

The assay relates to dorsal forearm skin of healthy female Caucasian subjects. The assay is described as follows: In vivo biopsy (forearm patch, histology endpoints). More on the design: species or system human. Particulars: 0.05% active (positive control), semi-occlusion patch, 3 weeks. As for the experimental part:
Healthy female Caucasian subjects aged 30-65, with skin type II or III and mild to moderate photo damage, were treated on the dorsal forearm for 3 weeks (3 consecutive rounds of 5×24 hour) under semi-occlusion patches. Test articles including active ingredients, vehicle controls, and retinol were applied in a randomized allocation on 6 sites on each forearm. The application dose was 2 mg/cm^2. After 3 week treatment, a 2 mm punch biopsy was obtained from each treatment site and fixed in 10% buffered formalin. Tissue samples then embedded in paraffin, sectioned (5 μm thickness), and stained for skin markers after re-hydration. […] Retinol at a active concentration of 0.05% was used a positive control. Retinol use at a 0.05% active concentration in the semi-occlusion patch vehicle formulation yielded a visual score of approximately 0.56 out of a 4 point scale in HE staining (measuring hematoxylin and eosin staining, an indication of viable epidermal thickness and health) with 63.6% of the subjects showing an improvement; a visual score of 0.6 out of a 4 point scale in M-TC staining (Masson's trichrome staining, assessing total mature fiber-forming collagen in the dermis—mainly Collagen I, […] and Collagen V) with 51.6% of the subjects showing an improvement; a visual score of 0.52 out of a 4 point scale for pro-Col (measuring new synthesis of Collagen I by skin fibroblasts in the dermis) with 51.6% of the subjects showing an improvement; and a visual score of 0.57 out of a 4 point scale for HA (measuring level of hyaluronic acid in both dermis and epidermis) with 50% of the subjects showing an improvement.

On to `CC1=C(/C=C/C(C)=C/C=C/C(C)=C/CO)C(C)(C)CCC1` [Retinol], for which the “subjects showing an improvement, HA” value is 50%; the “subjects showing an improvement, HE staining” value is reported as 63.6%; the “subjects showing an improvement, M-TC staining” value is listed as 51.6%; the “subjects showing an improvement, pro-Col” value was 51.6%. Besides, where the note is “out of a 4 point scale”, the “visual score HA (hyaluronic acid in dermis and epidermis)” value was 0.57; the “visual score HE staining (viable epidermal thickness and health)” value was “approximately 0.56”; the “visual score M-TC staining (total mature fiber-forming collagen in dermis)” value is recorded as 0.6; the “visual score pro-Col (new synthesis of Collagen I)” value was determined as 0.52.
